This is an account of results in DBAASP.

The structures appear in SMILES notation. In brackets after ≈: the same amount, converted by molar mass.

What all share (assay): ≥ marks a high value that may be exact or a test limit, other limits are often not marked, values filed in µg/mL are converted to µM
Assay [1] concerns Bacillus anthracis Sterne 34F2.
The test system of assay [2] is Bacillus subtilis ATCC 9372.
Assay [3] has as its system Burkholderia thailandensis.
Assay [4] deals with Candida albicans ATCC 10231.
In assay [5] the test system is Klebsiella pneumoniae ATCC 13883.
Assay [6] relates to Staphylococcus aureus ATCC 29213.
Assay [7] relates to Lacticaseibacillus casei ATCC 4646.
In assay [8] the test system is Pseudomonas aeruginosa PAK.
For assay [9], the system named is Staphylococcus aureus.
In assay [10] the test system is Streptococcus gordonii Challis DL1.
The subject of assay [11] is Streptococcus mitis ATCC 903.
Assay [12] concerns Streptococcus mutans UA159.
In assay [13] the test system is Streptococcus sanguinis NY101.
The test system of assay [14] is Veillonella atypica PK1910.
Assay [15] relates to Bacillus subtilis ATCC 6633.
For assay [16], the system named is Candida albicans ATCC 20032.
For assay [17], the system named is Escherichia coli ATCC 25922.
Assay [18] relates to Staphylococcus aureus ATCC 25923.
The test system of assay [19] is Streptococcus mutans.
The subject of assay [20] is Bacillus megaterium Bm11.
The test system of assay [21] is Escherichia coli D21.
The test system of assay [22] is Proteus vulgaris OX19 ATCC 6380.
The test system of assay [23] is Pseudomonas aeruginosa OT97.
Assay [24] deals with Shigella flexneri ATCC 203.
Assay [25] has as its system Staphylococcus aureus Cowan 1.
The test system of assay [26] is Staphylococcus aureus JC-1.
Assay [27] concerns Batrachochytrium dendrobatidis.
Assay [28] has as its system Candida albicans NCYC 1467.
Assay [29] relates to Escherichia coli ATCC 25726.
For assay [30], the system named is Staphylococcus aureus NCTC 10788.
In assay [31] the test system is Legionella pneumophila Lens.

`CC[C@H](C)[C@H](NC(=O)[C@H](C)NC(=O)[C@@H](N)C(C)C)C(=O)N[C@@H](C)C(=O)N[C@@H](CC(C)C)C(=O)N[C@@H](CCCCN)C(=O)N[C@@H](C)C(=O)N[C@@H](C)C(=O)N[C@@H](Cc1cnc[nH]1)C(=O)N[C@@H](Cc1ccc(O)cc1)C(=O)N[C@@H](Cc1cnc[nH]1)C(=O)N[C@H](C(=O)N[C@@H](Cc1cnc[nH]1)C(=O)N[C@@H](CCCCN)C(=O)N[C@@H](CCC(=O)O)C(=O)O)[C@@H](C)O` [VAIALKAAHYHTHKE]: the MIC in [1] is not below 100 µM; in [2], not below 100 µM; in assay [3], not below 50 µM; in [4], 0.592 µM (≈ 1 µg/mL); in [5] it was not below 75.8 µM; in assay [6], 75.8 µM (≈ 128 µg/mL).

Consider `NC(=O)[C@H](Cc1ccccc1)NC(=O)[C@H](Cc1c[nH]c2ccccc12)NC(=O)[C@H](CCCN=C(N)N)NC(=O)[C@H](Cc1c[nH]c2ccccc12)NC(=O)[C@H](CCCN=C(N)N)NC(=O)[C@H](Cc1c[nH]c2ccccc12)NC(=O)[C@@H](N)CCCN=C(N)N` [RWRWRWF], for which the MIC in assay [7] was determined as 26.8 µM (≈ 32 µg/mL); in assay [8], 26.8 µM (≈ 32 µg/mL); in assay [9], 26.8 µM (≈ 32 µg/mL); in assay [10] it was 26.8 µM (≈ 32 µg/mL); in assay [11] it was 26.8 µM (≈ 32 µg/mL); in assay [12] it was 4.74 µM (≈ 5.65 µg/mL). Moreover, the results for the MIC in assay [13] and in assay [14] were 26.8 µM (≈ 32 µg/mL) and not below 53.7 µM, respectively.

For the molecule `CC[C@H](C)[C@H](NC(=O)CN)C(=O)NCC(=O)NCC(=O)N[C@H](C(=O)N[C@@H](CC(C)C)C(=O)N[C@@H](CC(C)C)C(=O)NCC(=O)N[C@@H](C)C(=O)NCC(=O)N[C@@H](CCCCN)C(=O)N[C@@H](C)C(=O)N[C@H](C(=O)N[C@@H](CC(C)C)C(=O)N[C@@H](CCCCN)C(=O)NCC(=O)N[C@@H](CC(C)C)C(=O)N[C@@H](C)C(=O)N[C@@H](CCCCN)C(=O)N[C@H](C(=O)N[C@@H](CC(C)C)C(=O)N[C@@H](C)C(=O)N[C@@H](CCC(=O)O)C(=O)N[C@@H](CCCCN)C(=O)N[C@@H](Cc1ccc(O)cc1)C(=O)N[C@@H](C)C(=O)N[C@@H](CC(N)=O)C(N)=O)C(C)C)[C@@H](C)O)C(C)C` [GIGGVLLGAGKATLKGLAKVLAEKYAN], the MIC was not below 38.3 µM in assay [15], not below 38.3 µM in [16], more than 38.3 µM in assay [17] and 7.19 µM (≈ 18.8 µg/mL) in [18].

On to `CC(C)C[C@H](NC(=O)[C@H](Cc1ccccc1)NC(=O)[C@H](CCCN=C(N)N)NC(=O)[C@H](CCCCN)NC(=O)[C@@H](N)CC(C)C)C(=O)N[C@@H](CCCCN)C(=O)N[C@@H](Cc1c[nH]c2ccccc12)C(=O)N[C@@H](Cc1ccccc1)C(=O)N[C@@H](CCCCN)C(=O)N[C@@H](CCCN=C(N)N)C(=O)N[C@@H](Cc1ccccc1)C(N)=O` [LKRFLKWFKRF], for which the MIC in assay [7] was 10.2 µM (≈ 16 µg/mL); in assay [10], 20.4 µM (≈ 32 µg/mL); in assay [11], not below 40.8 µM; in [19] it was 8.83 µM (≈ 13.8 µg/mL); in [13], 10.2 µM (≈ 16 µg/mL); in [14], 20.4 µM (≈ 32 µg/mL).

In the case of `CC[C@H](C)[C@H](N)C(=O)N[C@@H](CC(C)C)C(=O)NCC(=O)N1CCC[C@H]1C(=O)N[C@H](C(=O)N[C@@H](CC(C)C)C(=O)NCC(=O)N[C@@H](CC(C)C)C(=O)N[C@@H](CC(=O)O)C(=O)NCC(=O)N[C@@H](CC(N)=O)C(=O)N[C@@H](C)C(=O)N[C@@H](CC(C)C)C(=O)NCC(=O)NCC(=O)N[C@@H](CC(C)C)C(=O)N[C@H](C(=O)N[C@@H](CCCCN)C(=O)N[C@@H](CCCCN)C(=O)N[C@H](C(N)=O)[C@@H](C)CC)[C@@H](C)CC)C(C)C` [ILGPVLGLDGNALGGLIKKI], the MIC in assay [15] was not below 51 µM; in assay [16] it was not below 51 µM; in assay [17], more than 51 µM; in assay [18], more than 51 µM.

Take `CC[C@H](C)[C@H](NC(=O)[C@H](CCCCN)NC(=O)[C@@H](NC(=O)[C@@H](NC(=O)[C@H](CCC(N)=O)NC(=O)CNC(=O)[C@H](Cc1cnc[nH]1)NC(=O)[C@H](CCC(N)=O)NC(=O)[C@H](CC(N)=O)NC(=O)[C@H](CCC(N)=O)NC(=O)[C@@H](NC(=O)[C@@H](N)CCCCN)C(C)C)C(C)C)C(C)C)C(=O)N[C@@H](Cc1ccccc1)C(=O)N[C@@H](Cc1cnc[nH]1)C(=O)N[C@@H](Cc1cnc[nH]1)C(=O)O` [KVQNQHGQVVKIFHH]: the MIC was not below 1600 µM in assay [20]; not below 800 µM in [15]; not below 3200 µM in [21]; not below 6000 µM in assay [22]; not below 6000 µM in [23]; not below 800 µM in assay [24]. The values for the minimal inhibitory concentration (MIC) in assay [25] and in assay [26] were not below 6000 µM and not below 800 µM, respectively.

Regarding `CC[C@H](C)[C@H](NC(=O)[C@H](C)NC(=O)[C@H](CO)NC(=O)[C@@H](NC(=O)[C@@H](N)Cc1ccccc1)[C@@H](C)CC)C(=O)N[C@@H](C)C(=O)N[C@@H](CO)C(=O)N[C@@H](CCSC)C(=O)N[C@@H](CC(C)C)C(=O)NCC(=O)N[C@@H](CCCCN)C(=O)N[C@@H](Cc1ccccc1)C(=O)N[C@@H](CC(C)C)C(N)=O` [FISAIASMLGKFL], the MIC in assay [27] is not below 100 µM; in assay [9], 100 µM (≈ 140 µg/mL).

Consider `CC[C@H](C)[C@H](NC(=O)[C@H](C)NC(=O)[C@H](CO)NC(=O)[C@@H](NC(=O)[C@H](C)NC(=O)[C@H](CC(C)C)NC(=O)[C@@H]1CCCN1C(=O)[C@@H](NC(=O)[C@H](CCSC)NC(=O)CNC(=O)[C@H](CC(C)C)NC(=O)[C@@H](N)CC(C)C)[C@@H](C)CC)[C@@H](C)CC)C(=O)N[C@@H](CO)C(=O)N[C@@H](C)C(=O)N[C@@H](CC(C)C)C(=O)N[C@@H](CO)C(=O)N[C@@H](CCCCN)C(=O)N[C@@H](CC(C)C)C(N)=O` [LLGMIPLAISAISALSKL], for which the MIC in [27] was not below 100 µM; in [28] it was 17.7 µM (≈ 32 µg/mL); in assay [29], not below 128 µM; in assay [18], 8 µM (≈ 14.5 µg/mL); in assay [30], 4.42 µM (≈ 8 µg/mL).

For `CC[C@H](C)[C@H](NC(=O)[C@H](CC(C)C)NC(=O)[C@H](CC(=O)O)NC(=O)[C@@H](NC(=O)[C@@H](NC(=O)[C@H](Cc1ccccc1)NC(=O)[C@H](CCC(N)=O)NC(=O)[C@@H](N)CCSC)[C@@H](C)CC)[C@@H](C)O)C(=O)NCC(=O)N[C@@H](CCCCN)C(=O)N[C@@H](C)C(=O)N[C@H](C(=O)N[C@@H](CC(=O)O)C(=O)N[C@@H](Cc1ccccc1)C(=O)N[C@@H](Cc1ccccc1)C(=O)N[C@@H](CCCCN)C(=O)NCC(=O)N[C@@H](CC(C)C)C(=O)N[C@@H](Cc1ccccc1)C(=O)N[C@@H](CC(=O)O)C(=O)N[C@@H](CC(N)=O)C(=O)N[C@@H](CCCCN)C(=O)O)C(C)C` [MQFITDLIGKAVDFFKGLFDNK], the MIC in [31] was found to be 19.6 µM (≈ 49.9 µg/mL).
